# According to patent US10975087B2, “Solid forms of tetrahydropyranyl amino-pyrrolopyrimidinone compounds” (ArQule, Inc., priority 2018, dated 2021):
# Experiments:
# Assay type in all cases: physicochemical
# [1] = Accelerated storage conditions (75% RH/40° C. for 72 hours), XRPD
# [2] = Salt disproportionation studies (slurry in deionized water); conditions: 48 hours
# Procedure: Samples of salts described herein were prepared for disproportionation studies. Approximately 15 mg of the salt material was suspended in 4 mL of deionized water at ambient temperature (ca. 22° C.). The slurry of the salt was shaken at ambient temperature and analyzed after: 1 h, 24 h, and 48 h. Each sample was filtered using a centrifuge filter. The solid was analyzed by XRPD. pH measurements were performed for the solution (three pH measurements were carried out for each sample and the average pH was calculated).
# [3] = 7 day stability testing, open vials at 40° C./75% RH, ambient and 80° C.; conditions: 40° C./75% RH, 80° C., and ambient temperature, 1 week
# [4] = Dynamic vapor sorption (DVS)
# Procedure: Approximately 10-20 mg of sample was placed into a mesh vapor sorption balance pan and loaded into a DVS-1 dynamic vapor sorption balance by Surface Measurement Systems. […] After completion of the sorption cycle, the sample was dried using the same procedure to 0% RH and then a second sorption cycle back to 40% RH. Two cycles were performed. The weight change during the sorption/desorption cycles were plotted, allowing for the hygroscopic nature of the sample to be determined. XRPD analysis may be then carried out on any solid retained.
# [5] = Hydration studies in water/acetone mixtures; conditions: for Hydration study result (solid by XRPD): 5 days
# Procedure: Hydration experiments were performed at 25° C. and 50° C. in water/acetone mixtures with the following water content (volume %): 2%, 5%, and 20%. The samples were prepared by adding 250 μL of the water/acetone mixture to 15 mg of the salt sample. The samples were stirred at 25° C. or at 50° C. After 2 days, the samples were inspected for the presence of solid. If solid was not observed, additional salt material was added to the dissolved samples. Samples were stirred for an additional 3 days. After 5 days, samples were filtered and the solid obtained was analyzed by XRPD.
# [6] = Karl Fischer coulometric titration (KF) water content
# Procedure: Approximately 10-30 mg of solid material was accurately weighed into a vial. The solid was then manually introduced into the titration cell of a Mettler Toledo C30 Compact Titrator. The vial was back-weighed after the addition of the solid and the weight of the added solid entered on the instrument. Titration was initiated once the sample had fully dissolved in the cell. The water content was calculated automatically by the instrument as a percentage and the data printed.
# [7] = Thermodynamic solubility pH measurements; conditions: respective buffer, 25° C., 48 hours
# Procedure: After 2 hours at 25° C., the pH of each slurry was measured and the pH was adjusted, where required. After 24 hours at 25° C., the pH of each slurry was measured and the pH was adjusted, where required. After 48 hours at 25° C., the slurries were separated by centrifugation. The solids were analyzed by XRPD, while the pH of the separated liquors were also measured.
compound,measurement,setting,value
O=C(O)C(=O)O.O=C(c1ccc(Oc2ccccc2)cc1Cl)c1c[nH]c2ncnc(N[C@@H]3CC[C@@H](CO)OC3)c12 [oxalate Form 3],stability under accelerated storage conditions (XRPD),[1],stable
O=S(=O)(O)c1cccc2c(S(=O)(=O)O)cccc12,stability under accelerated storage conditions (XRPD),[1],decreased crystallinity
O=C(O)/C=C\C(=O)O.O=C(c1ccc(Oc2ccccc2)cc1Cl)c1c[nH]c2ncnc(N[C@@H]3CC[C@@H](CO)OC3)c12 [maleate Form 1],stability under accelerated storage conditions (XRPD),[1],stable
Br.O=C(c1ccc(Oc2ccccc2)cc1Cl)c1c[nH]c2ncnc(N[C@@H]3CC[C@@H](CO)OC3)c12 [hydrobromide Form 1],stability under accelerated storage conditions (XRPD),[1],stable
same,"XRPD after salt disproportionation study, 48 hours",[2],no change from the input material
same,XRPD analysis after storage for 1 week,[3],no change in form from the input material
same,Post-DVS XRPD analysis (form),[4]; after exposure to elevated humidity,no change in form from the input material
same,moisture uptake by DVS,[4]; at 90% RH,ca. 7.0%
same,solid obtained in hydration study (XRPD),"[5]; 2% and 5% water in acetone, 25° C.",recovered
same,solid obtained in hydration study (XRPD),"[5]; 2% water in acetone, 50° C.",potentially new form
same,Hydration study result (solid by XRPD),"[5]; 2% water in water/acetone, 25° C., Form = form of the same salt",Form 1
same,Hydration study result (solid by XRPD),"[5]; 2% water in water/acetone, 50° C., Form = form of the same salt",low crystallinity
same,Hydration study result (solid by XRPD),"[5]; 5% water in water/acetone, 25° C., Form = form of the same salt",Form 1
same,Hydration study result (solid by XRPD),"[5]; 5% water in water/acetone, 50° C., Form = form of the same salt",Gum
same,Hydration study result (solid by XRPD),"[5]; 20% water in water/acetone, 25° C.",Gum
same,Hydration study result (solid by XRPD),"[5]; 20% water in water/acetone, 50° C.",Gum
same,solid obtained in hydration study,[5]; the other experiments (remaining water contents/temperatures),gum
same,KF moisture (water) content,[6],7.39%
same,XRPD after thermodynamic solubility studies,[7],no change from the input material
Cl.O=C(c1ccc(Oc2ccccc2)cc1Cl)c1c[nH]c2ncnc(N[C@@H]3CC[C@@H](CO)OC3)c12 [hydrochloride Form 2],stability under accelerated storage conditions (XRPD),[1],decreased crystallinity
